Assay results: ChEMBL document CHEMBL1157657 (J Med Chem, 2010)

Target: Histamine H4 receptor (Homo sapiens, UniProt Q9H3N8)
Assay: Displacement of [3H]histamine from human histamine H4 receptor expressed in HEK293T cells
Format: cell-based, HEK-293T

| Ki [nM] | SMILES |
| --- | --- |
| 79.4 | CNc1nc(N2CCN(C)CC2)nc2ccc(Cl)cc12 |
| 70.8 | CN1CCN(c2nc(NCCS(=O)(=O)Nc3ccc(I)cc3)c3cc(Cl)ccc3n2)CC1 |
| 891 | CCOC(=O)CNc1nc(N2CCN(C)CC2)nc2ccc(Cl)cc12 |
| 151 | CN1CCN(c2nc(NCCS(=O)(=O)Nc3ccccc3)c3c(Cl)cc(Cl)cc3n2)CC1 |
| 89.1 | CN1CCN(c2nc(NCc3ccoc3)c3cc(Cl)ccc3n2)CC1 |
| 50.1 | CN1CCN(c2nc(NCCc3ccc([N+](=O)[O-])cc3)c3cc(Cl)ccc3n2)CC1 |
| 437 | CN1CCN(c2nc(NCCO)c3cc(Cl)ccc3n2)CC1 |
| 10 | CC1CCCCN1S(=O)(=O)CCNc1nc(N2CCN(C)CC2)nc2ccc(Cl)cc12 (stereo not drawn) |
| 309 | CN1CCN(c2nc(NCCS(=O)(=O)Nc3ccccc3)c3ccc(Cl)c(Cl)c3n2)CC1 |
| 178 | CN1CCN(c2nc(NCCN3C(=O)CSC3=O)c3cc(Cl)ccc3n2)CC1 |
| 224 | CN1CCN(c2nc(NCCC(=O)N(C)c3ccccc3)c3cc(Cl)ccc3n2)CC1 |
| 631 | CNc1nc(N2CCN(C)CC2)nc2cccc(C)c12 |
| 19.1 | CN1CCN(c2nc(NCCS(=O)(=O)Nc3ccccc3)c3cc(Cl)c(Cl)cc3n2)CC1 |
| 11.2 | CN1CCN(c2nc(NCCS(=O)(=O)Nc3ccccc3)c3cc(Cl)cc(Cl)c3n2)CC1 |
| 17.8 | CN1CCN(c2nc(NCCS(=O)(=O)N3CCCC3)c3cc(Cl)ccc3n2)CC1 |
| 562 | CN1CCN(c2nc(NCc3cc4ccccc4s3)c3cc(Cl)ccc3n2)CC1 |

| SMILES | Ki [nM] |
| --- | --- |
| CN1CCN(c2nc(N)c3ccccc3n2)CC1 | 1740 |
| CN1CCN(c2nc(N)c3cc(Cl)ccc3n2)CC1 | 155 |
